Results as given in US9834807B2, “Compositions for the detection of intracellular bacterial targets and other intracellular micororganism targets” (Becton, Dickinson and Company, priority 2008, dated 2017).

Key:
[1] = tested on: intracellular beta-lactamase; test: nitrocefin hydrolysis by bacterial cell suspension on Phoenix panel; type: cell-based, Klebsiella pneumoniae; design: unit not given here; settings: maximum hydrolysis rate within 10 hrs; for NCF activity: no lysis reagent
Protocol: (§1) Panel production. Stock solutions with nitrocefin, trehalose, and/or reagents used to lyse the bacterial cells in pH6 MES buffer were prepared and dispensed into wells on the bottom part of a Phoenix™ panel (BD, USA), with one stock solution in one well. Panels were then dried in an oven for approximately 30 min at approximately 70° C. The top part of Phoenix panel was then attached to the bottom part forming a panel system ready for inoculation. The concentrations of reagents after rehydration following Phoenix panel inoculation were 3 mg/ml lysozyme, 1 mM EDTA, and 1% trehalose in 0.1M pH6 MES buffer.
(§2) Inoculation and lysis testing. Representative strains of bacteria, such as E. coli and Klebsiella pneumoniae, were each streaked on a Trypticase™ Soy Agar with 5% Sheep Blood agar plate (BD, USA) and the plates were incubated at 35° C. for 18 hours. Afterwards, colonies from pure culture on each plate were inoculated into BD Phoenix ID broth and adjusted to a desired turbidity of approximately 0.5 MacFarland. The bacterial cell suspension was then poured into the ID side of the Phoenix panels that were specifically made for cell lysis testing. Once inoculated, the panel was loaded into Phoenix instrument, where nitrocefin hydrolysis rate was monitored by colorimetric signals changes every 20 minutes for 16 hours.
(§3) Microorganism. The presence of beta-lactamase in the strains tested herein was previously characterized by isoelectric focusing (IEF) gel electrophoresis, PCR testing, or MIC assays, which were performed by microbroth dilution method according to the CLSI (Clinical and Laboratory Standards Institute) standard.

[2] = tested on: intracellular beta-lactamase; test: as above; type: cell-based, E. coli; design: unit not given here; settings: maximum hydrolysis rate within 10 hrs; for NCF activity: no lysis reagent
Protocol: as §1, §2, §3

[3] = Sample 9, Klebsiella pneumoniae, beta-lactamase +
[4] = Sample 10, Klebsiella pneumoniae, beta-lactamase +
[5] = Sample 11, Klebsiella pneumoniae, beta-lactamase +
[6] = Sample 12, Klebsiella pneumoniae, beta-lactamase +
[7] = Sample 13, Klebsiella pneumoniae, beta-lactamase +
[8] = Sample 14, Klebsiella pneumoniae, beta-lactamase +
[9] = Sample 15, Klebsiella pneumoniae, beta-lactamase +
[10] = Sample 16, Klebsiella pneumoniae, beta-lactamase −
[11] = Sample 1, E. coli, beta-lactamase +
[12] = Sample 2, E. coli, beta-lactamase +
[13] = Sample 3, E. coli, beta-lactamase +
[14] = Sample 4, E. coli, beta-lactamase +
[15] = Sample 5, E. coli, beta-lactamase +
[16] = Sample 6, E. coli, beta-lactamase +
[17] = Sample 7, E. coli, beta-lactamase +
[18] = Sample 8, E. coli, beta-lactamase −

SMILES: O=C(Cc1cccs1)N[C@@H]1C(=O)N2C(C(=O)O)=C(/C=C/c3ccc([N+](=O)[O-])cc3[N+](=O)[O-])CS[C@H]12 [NCF, 3-[2,4-dinitrostyryl]-7-(2-thienylacetamido]3-cephem-4-carboxylic acid]
- NCF activity [1, 3]: 1.3
- NCF activity with lysis reagent [1, 3]: 4.6
- NCF activity [1, 4]: 3.3
- NCF activity with lysis reagent [1, 4]: 6.3
- NCF activity [1, 5]: 3.9
- NCF activity with lysis reagent [1, 5]: 6.1
- NCF activity [1, 6]: 2.6
- NCF activity with lysis reagent [1, 6]: 5.6
- NCF activity [1, 7]: 6.7
- NCF activity with lysis reagent [1, 7]: 6.8
- NCF activity [1, 8]: 7.5
- NCF activity with lysis reagent [1, 8]: 8.8
- NCF activity [1, 9]: 9.1
- NCF activity with lysis reagent [1, 9]: 9.5
- NCF activity [1, 10]: 1.2
- NCF activity with lysis reagent [1, 10]: 1.8
- NCF activity [2, 11]: 1.9
- NCF activity with lysis reagent [2, 11]: 7.2
- NCF activity [2, 12]: 2.1
- NCF activity with lysis reagent [2, 12]: 7.7
- NCF activity [2, 13]: 2.3
- NCF activity with lysis reagent [2, 13]: 8.1
- NCF activity [2, 14]: 1.9
- NCF activity with lysis reagent [2, 14]: 6.8
- NCF activity [2, 15]: 8.2
- NCF activity with lysis reagent [2, 15]: 9.1
- NCF activity [2, 16]: 7.2
- NCF activity with lysis reagent [2, 16]: 8.1
- NCF activity [2, 17]: 6.8
- NCF activity with lysis reagent [2, 17]: 8.4
- NCF activity [2, 18]: 1.7
- NCF activity with lysis reagent [2, 18]: 1.8
